Results published in patent US11273172B2, “Synergistic combination of oligonucleotides and chemotherapeutic for treating cancer” (THE BOARD OF TRUSTEES OF THE UNIVERSITY OF ILLINOIS, priority 2017, dated 2022).
“And” between values parts separate entries of the source, which are not always exact repeats. Identical values can stand only once.

B1: TRAIL: cytotoxic protein which induces apoptosis in tumor cells, but not in normal cells (protein, UniProt P50591 1-281, looked up)
Tumor necrosis factor ligand …: MAMMEVQGGPSLGQTCVLIVIFTVLLQSLCVAVTYVYFTNELKQMQDKYSKSGIACFLKEDDSYWDPNDEESMNSPCWQVKWQLRQLVRKMILRTSEETISTVQEKQQNISPLVRERGPQRVAAHITGTRGRSNTLSSPNSKNEKALGRKINSWESSRSGHSFLSNLHLRNGELVIHEKGFYYIYSQTYFRFQEEIKENTKNDKQMVQYIYKYTSYPDPILLMKSARNSCWSKDAEYGLYSIYQGGIFELKENDRIFVSVTNEHLIDMDHEASFFGAFLVG

Legend:
Assay in all cases: MTT cell death assay, chemotherapeutic with and without MADD siRNA knockdown
Type in all cases: cell-based
Conditions in all cases: siRNA 10 nM
[1] = test system: 8505C thyroid cancer cells
Method: (§1) Cells are cultured and maintained at 37° C. in a humidified atmosphere containing 5% CO2 as described above. […] After 12-18 hours (Day 1), cells are transfected with Scramble or MADD siRNA at 10 nM concentration. The sequences of siRNAs (double stranded) used are:
(§2) On Day 4, when cells are properly adhered and retained their shape in 96-well plates, drugs are added. All drugs are diluted in complete media on the same day prior to the addition to the cells. In untreated cells, media is replaced with complete media. Two hundred μl volume of media (with or without drugs) is used for the drug treatment assay. Plates are incubated 24 h, 48 h and 72 hours at 37° C. in humidified CO2 incubator.
(§3) An MTT assay is performed to determine relative survival after drug treatment as described above. MTT (3-[4,5-Dimethylthiazol-2-yl]-2,5-diphenyltetrazolium bromide; Thiazolyl blue) is purchased from Sigma Aldrich (Cat number: M5655). […] Ten μl of MTT solution is added per well of 96-well plate. Plates are incubated for 2 hours at 37° C. in the humidified CO2 incubator. After 2 hours, media is aspirated using vacuum inside the biosafety hood. Purple colored crystals formed in viable cells are dissolved by adding 100 μl of Dimethyl sulfoxide (Thermo Fisher Scientific; Cat number D128-500) Plates are kept on shaker for 10 minutes for compete dissolution of crystals and absorbance is recorded at 595 nm using Bio-Rad iMark microplate reader. Data is analyzed in MICROSOFT EXCEL® software. Relative survival is calculated with respect to absorbance of control (untreated cells) to determine the effect of transfection as well as combination treatment.
(§4) Each data set takes into account any spontaneous cell death which is observed upon transfection with Scramble siRNA; the amount of spontaneous cell death from Scramble siRNA transfection (baseline) is subtracted from the amount of cell death observed in each siRNA transfection reaction to yield a Net Percent (Net %) cell death after accounting for Scrambled siRNA-induced cell death.
as §2, with “24 hours,” for “24 h,”, “48 hours” for “48 h”

[2] = test system: AGS gastric adenocarcinoma cells
Method: (§5) Cells are cultured and maintained at 37° C. in a humidified atmosphere containing 5% CO2 as described above. […] After 12-18 hours (Day 1), cells are transfected with Scramble or MADD siRNA at 10 nM concentration. The sequences of siRNAs (double-stranded) used are:
as §2, with “24 hours,” for “24 h,”, “48 hours” for “48 h”
as §3, §4, §1
as §3, with “D128-500).” for “D128-500)”
as §2

[3] = test system: PLC/PRF/5 hepatic cancer cells
Method: as §5
as §2, with “24 hours,” for “24 h,”, “48 hours” for “48 h”
as §3, §4, §1
as §3, with “D128-500).” for “D128-500)”
as §2

[4] = 8505C thyroid cancer cells, TRAIL 6.25 ng/ml, 48 hours post TRAIL treatment
[5] = 8505C, Cisplatin 2.5 μM, 48 hours post Cisplatin treatment
[6] = 8508C thyroid cancer cells, TRAIL 6.25 ng/ml, 48 hours post TRAIL treatment
[7] = 5-flurouracil 25 μM, 72 hours post 5-flurouracil treatment
[8] = Gemcitabine 1 μM, 48 hours post Gemcitabine treatment
[9] = Sorafinib 0.625 μM, 48 hours post Sorafinib treatment
[10] = TRAIL 6.25 ng/ml, 72 hours post TRAIL treatment
[11] = Cisplatin 1.875 μM, 24 hours post Cisplatin treatment
[12] = Gemcitabine 0.03125 μM, 24 hours post Gemcitabine treatment
[13] = Sorafinib 0.375 μM, 24 hours post Sorafinib treatment
[14] = TRAIL 50 ng/ml, 24 hours post TRAIL treatment

| Molecule | Net % cell death after accounting for Scrambled siRNA [1, 4] | Net % cell death after accounting for Scrambled siRNA [1, 5] | Observed % Cell death [1, 5] | Observed % Cell death [1, 6] | Net % cell death after accounting for Scrambled siRNA [2, 7] | Observed % Cell death [2, 7] | Net % cell death after accounting for Scrambled siRNA [2, 8] | Observed % Cell death [2, 8] | Net % cell death after accounting for Scrambled siRNA [2, 9] | Observed % Cell death [2, 9] | Net % cell death after accounting for Scrambled siRNA [2, 10] | Observed % Cell death [2, 10] | Net % cell death after accounting for Scrambled siRNA [3, 11] | Observed % Cell death [3, 11] | Net % cell death after accounting for Scrambled siRNA [3, 12] | Observed % Cell death [3, 12] | Net % cell death after accounting for Scrambled siRNA [3, 13] | Observed % Cell death [3, 13] | Net % cell death after accounting for Scrambled siRNA [3, 14] | Observed % Cell death [3, 14] |
| --- | --- | --- | --- | --- | --- | --- | --- | --- | --- | --- | --- | --- | --- | --- | --- | --- | --- | --- | --- | --- |
| Scrambled siRNA: non-specific Scramble siRNA, negative control; SEQ ID NO: 5, 5′-UUGCUAAGCGUCGGUCAAUTT-3′ (chemistry not given here) | 10 − 10 = 0% | 10% | 10% | 10% | 17 − 17 = 0% | 17% | 9 − 9 = 0% | 9% | 9 − 9 = 0% | 9% | 17 − 17 = 0% | 17% | 5 − 5 = 0% | 5% | 5 − 5 = 0% | 5% | 5 − 5 = 0% | 5% | 5 − 5 = 0% | 5% |
| CNC(=O)c1cc(Oc2ccc(NC(=O)Nc3ccc(Cl)c(C(F)(F)F)c3)cc2)ccn1 [Sorafinib] | – | – | – | – | – | – | – | – | 12% | 12% | – | – | – | – | – | – | 13% | 13% | – | – |
| MADD siRNA: siRNA targeting exon 13L of the MADD splice variant of the IG20 gene; SEQ ID NO: 4, 5′-GAUUGUCAUAGAUUCGCCGTT-3′ (chemistry not given here) | 39% and 49 − 10 = 39% | 39% and 49 − 10 = 39% | 49% | 49% | – | 20% | 5% and 14 − 9 = 5% | 14% | 5% and 14 − 9 = 5% | 14% | – | 20% | 20% and 25 − 5 = 20% | 25% | 20% and 25 − 5 = 20% | 25% | 20% and 25 − 5 = 20% | 25% | 20% and 25 − 5 = 20% | 25% |
| B1 | 6.56% and 7% | – | – | 7% | – | – | – | – | – | – | 7% | 7% | – | – | – | – | – | – | 0% | 0% |
